Key:
lupus T cells = assay: Flow cytometry of mitochondrial transmembrane potential, mitochondrial mass, H2O2 and NO in T cells of treated SLE patients; type: in vivo, human
Excerpt: (§1) Cell viability was monitored with annexin V conjugated to fluorescein isothiocyanate (annexin V-FITC conjugate), annexin V conjugated to phycoerythrin (annexin V-PE conjugate), or annexin V conjugated to fluorochrome Cy5 (Annexin V-Cy5 conjugate) matched with emission spectra of propidium iodide (PrI) to detect Annexin V+/PrI− apoptotic cells. Mitochondrial transmembrane potential (ΔΨm) was monitored with mitochondrial potentiometric dyes such as 3,3′-dihexyloxacarbocyanine iodide ((DiOC6), using an excitation wavelength of […] and emission at 488 nm, recorded at 525 nm in the FL-1 (green fluorescence) channel); and tetramethylrhodamine, methyl ester ((TMRM), using an excitation wavelength of […], and emission at 543 nm, recorded at 567 nm in the FL-2 (yellow/orange fluorescence) channel), potential-insensitive mitochondrial dyes such as MitoTracker Green-FM (MTG, 100 nM; excitation: 490 nm, emission: 516 nm recorded in FL-1) or nonyl acridine orange (NAO, 50 nM; excitation: 490 nm, emission: 540 nm recorded in FL-1), superoxide sensing hydroethidine (HE, 1 μM) and H2O2-sensing dichlorofluorescein diacetate (DCF-DA, 1 μM), nitric oxide sensor 4-amino-5-methylamino-2′,7′-difluoroflourescein diacetate (DAF-FM, 1 μM, excitation: 495, emission: 515 nm recorded in FL-1), or cytosolic probes (Fluo-3, 1 μM, excitation: 506 nm, emission: 526 nm recorded in FL-1) and mitochondrial Ca^2+-sensitive fluorescent probes (Rhod-2, 1 μM), respectively.
All metabolic and mitochondrial sensor dyes were obtained from Invitrogen (Carlsbad, Calif.) and used as earlier described in Fernandez, D. R. et al., “Activation of mTOR controls the loss of TCR in lupus T cells through HRES-1/Rab4-regulated lysosomal degradation,” J. Immunol., 182: 2063-2073 (2009); Banki, K. et al., “Glutathione Levels and Sensitivity to Apoptosis Are Regulated by changes in Transaldolase expression,” J. Biol. Chem., 271: 32994-33001 (1996); Banki, K. et al., “Elevation of mitochondrial transmembrane potential and reactive oxygen intermediate levels are early events and occur independently from activation of caspases in Fas signaling,” J. Immunol., 162: 1466-1479 (1999); Nagy, G. et al., “T cell activation-induced mitochondrial hyperpolarization is mediated by Ca^2+- and redox-dependent production of nitric oxide,” J. Immunol., 171: 5188-5197 (2003); and Perl, A. et al., “Apoptosis and mitochondrial dysfunction in lymphocytes of patients with systemic lupus erythematosus,” In: Perl, A., editor. Autoimmunity: Methods and Protocol. 1 ed. Totowa, N.J.: Humana; 2004 p. 87-114, the entire disclosures of each of which are incorporated by reference herein.
(§2) NO production (FIG. 3D: DAF-FM fluorescence), and mitochondrial mass were measured in T cell subsets following CD3/CD28 stimulation for 16 h (FIG. 3E: NAO fluorescence). FIG. 3F: Spontaneous apoptosis rate was enumerated by the percentage of Ann V+/PrI− T cells after culture for 16 h. FIG. 3G: Activation-induced apoptosis was assessed following CD3/CD28 co-stimulation for 16 h. Visits: visit 1, before 1st NAC dose; visit 2, after 1-month treatment; visit 3, after 2-month treatment; visit 4, after 3-month treatment; visit 5, after 1-month washout.

DN T cells = assay: Spontaneous and CD3/CD28-induced apoptosis of T cells (annexin V/PrI flow cytometry); type: in vivo, human; conditions: NAC-treated patients; for CD3/CD28-induced apoptosis: baseline 16.0±1.6%
Excerpt: as §1, §2
Unstimulated cells and cells stimulated with CD3/CD28 for 16 h were examined and cell death pathway selection in T cells was measured by concurrent staining with annexin V-Alexa 647 and propidium iodide (PrI) as well as cell type-specific antigens. T-cell subsets were analyzed by staining with antibodies to CD4, CD8, and CD25. B cells were identified by CD 19 staining

FoxP3 = FoxP3 expression in T-cell subsets by flow cytometry; type: in vivo, human
Procedure: Foxp3 expression was measured in permeabilized cells using Alexa-647-conjugated antibody from BioLegend (San Diego, Calif.; cat No 320014). Up to 11 parameters were recorded simultaneously using a Becton Dickinson LSRII flow cytometer equipped with 20 mW solid-state Nd-YAG (emission at 355 nm), 20 mW argon (emission at 488 nm), 10 mW diode pumped solid state yellow-green (emission 561 nm) and 16 mW heliumneon lasers (emission at 634 nm). Each patient's cells were processed and analyzed in parallel with a matched control. […] FIG. 5A: FoxP3 expression in CD4^+/CD25^+ and CD8^+/CD25^+ T cell subsets of lupus and control donors matched for age, gender, and ethnicity by flow cytometry. Red and blue values indicate percentage of FoxP3^+ cells in lupus and control donors, respectively. FIG. 5B: Cumulative analysis of FoxP3 expression in CD25^+ T-cell subsets in lupus subjects and matched controls. p values reflect comparison with two-tailed unpaired t-test. FIG. 5C: Effect of NAC on Foxp3 expression in CD25^+ T cell subsets of lupus patients exposed to all doses considered together. p values reflect comparison with two-tailed paired t-test.

[1] = Noszal et al. (2000); cited from earlier work
mTOR = mTOR (Homo sapiens, UniProt P42345); conditions: O'Loghlen et al. (2006); cited from earlier work
[2] = test system: murine lupus (female NZB×NZW F1 mouse model); conditions: Suwannaroj et al. (2001); cited from earlier work
[3] = Double Negative (DN) T cells after 3-month NAC treatment, declined after washout

CC(=O)N[C@@H](CS)C(=O)O [NAC, N-acetyl-L-cysteine]
Mitochondrial mass (lupus T cells; DN T cells following CD3/CD28 co-stimulation): robustly increased | H2O2 levels (lupus T cells; [3]): increased | Mitochondrial mass (lupus T cells; [3]): increased | production of NO (lupus T cells; after 3 months, p=0.002): 1.61±0.17 fold | Δψm (mitochondrial transmembrane potential) (lupus T cells; all T cells, p=0.0001): increased | CD3/CD28-induced apoptosis (DN T cells; after 2 months, p=0.0006): 25.4±2.6% | CD3/CD28-induced apoptosis (DN T cells; after 3 months, p=0.0004): 23.5±2.1% | Spontaneous apoptosis rate of DN T cells (DN T cells; after 4 months, baseline 10.1±1.3%, p=0.035): 15.2±2.3% | CD3/CD28-induced apoptosis (DN T cells; after 4 months, p=0.0313): 22.7±2.6% | CD4+/CD25+/FoxP3+ T cells (FoxP3; 4.8 g/day NAC, after 2 months, baseline 3.2±0.6%, p=0.018): 5.2±0.9% | FoxP3 expression in CD25+ DN T cells (FoxP3; after 2-month NAC treatment, baseline 1.29±0.23%, p=0.0160): 2.24±0.38% | percentage of FoxP3+ cells within the CD4+/CD25+ T-cell compartment (FoxP3; all NAC-treated patients, p=0.045): increased | half-cell potential, NAC thiol/disulfide pair [1]: about +63 mV | effect on mTOR in vitro (mTOR): inhibits | outcome of murine lupus in vivo [2]: improves the outcome

Reference: patent US20140275257A1, “N-ACETYL CYSTEINE COMPOSITIONS IN THE TREATMENT OF SYSTEMIC LUPUS ERYTHEMATOSUS” (Foundation for the State University of New York, priority 2013, published 2014)
